Literature values as cited in patent US9737548B2, “Pharmaceutical formulations and uses thereof in the treatment of female sexual dysfunction” (EB IP LYBRIDO B.V., priority 2005, dated 2017).

Columns and labels:
[1] = short-lasting peak formulation
[2] = serum concentration

Compound | time after administration at which peak serum level of testosterone is obtained [1] | time after which testosterone serum level is back to the level before administration [1] | Tmax [2]
C[C@]12CC[C@H]3[C@@H](CCC4=CC(=O)CC[C@@]43C)[C@@H]1CC[C@@H]2O [testosterone, 17-β-hydroxyandrost-4-en-3-one] | 1 to 20 min | approximately 120 minutes | 
COc1cc2nc(N3CCN(C(=O)c4ccco4)CC3)nc(N)c2cc1OC [prazosin] |  |  | 1 to 2 h
